One assay deals with T1, CDK9/CycT1 (Homo sapiens, UniProt P50750).
T1 construct: Recombinant full-length His-tagged human CDK9 and CycT1; His; purchased Invitrogen PV4131; host or cells: insect cells
The assay can be described thus: CDK9/CycT1 kinase assay (TR-FRET, Method 1a). The format is biochemical. The note with it: for IC50: Method 1a, 10 μM ATP; for Selectivity CDK9 over CDK2: IC50 (CDK2)/IC50 (CDK9): Methods 1a and 2a, minimal values where CDK9 IC50 is at the assay limit. An excerpt:
1a. CDK9/CycT1 Kinase Assay:
CDK9/CycT1-inhibitory activity of compounds of the present invention was quantified employing the CDK9/CycT1 TR-FRET assay as described in the following paragraphs:
Recombinant full-length His-tagged human CDK9 and CycT1, expressed in insect cells and purified by Ni-NTA affinity chromatography, were purchased from Invitrogen (Cat. No PV4131). As substrate for the kinase reaction biotinylated peptide biotin-Ttds-YISPLKSPYKISEG (C-terminus in amid form) was used which can be purchased e.g. from the company JERINI Peptide Technologies (Berlin, Germany). For the assay 50 nl of a 100 fold concentrated solution of the test compound in DMSO was pipetted into a black low volume 384 well microtiter plate (Greiner Bio-One, Frickenhausen, Germany), 2 μl of a solution of CDK9/CycT1 in aqueous assay buffer [50 mM Tris/HCl pH 8.0, 10 mM MgCl2, 1.0 mM dithiothreitol, 0.1 mM sodium ortho-vanadate, 0.01% (v/v) Nonidet-P40 (Sigma)] were added and the mixture was incubated for 15 min at 22° C. to allow pre-binding of the test compounds to the enzyme before the start of the kinase reaction. […] The concentration of CDK9/CycT1 was adjusted depending of the activity of the enzyme lot and was chosen appropriate to have the assay in the linear range, typical concentrations were in the range of 1 μg/mL. The reaction was stopped by the addition of 5 μl of a solution of TR-FRET detection reagents (0.2 μM streptavidine-XL665 [Cisbio Bioassays, Codolet, France] and 1 nM anti-RB(pSer807/pSer811)-antibody from BD Pharmingen [#558389] and 1.2 nM LANCE EU-W1024 labeled anti-mouse IgG antibody [Perkin-Elmer, product no. AD0077]) in an aqueous EDTA-solution (100 mM EDTA, 0.2% (w/v) bovine serum albumin in 100 mM HEPES pH 7.5).
The resulting mixture was incubated 1 h at 22° C. to allow the formation of complex between the phosphorylated biotinylated peptide and the detection reagents. Subsequently the amount of phosphorylated substrate was evaluated by measurement of the resonance energy transfer from the Eu-chelate to the streptavidine-XL. Therefore, the fluorescence emissions at 620 nm and 665 nm after excitation at 350 nm was measured in a HTRF reader, e.g. a Rubystar (BMG Labtechnologies, Offenburg, Germany) or a Viewlux (Perkin-Elmer). The ratio of the emissions at 665 nm and at […] was taken as the measure for the amount of phosphorylated substrate. The data were normalised (enzyme reaction without inhibitor=0% inhibition, all other assay components but no enzyme=100% inhibition).
A general note: Time-resolved FRET reads energy transfer from a long-lived donor to a nearby acceptor.

A further assay relates to HeLa cells. As to the kind of experiment: Proliferation assay HeLa. The format is cell-based, human. The note with it: Homo sapiens, HeLa, 96 h, 4 days, crystal violet; read-out: Inhibition of HeLa cell proliferation IC50. The method, then:
Cultivated tumour cells (HeLa, human cervical tumour cells, ATCC CCL-2; NCI-H460, human non-small cell lung carcinoma cells, ATCC HTB-177; A2780, human ovarian carcinoma cells, ECACC #93112519; DU 145, hormone-independent human prostate carcinoma cells, ATCC HTB-81; HeLa-MaTu-ADR, multidrug-resistant human cervical carcinoma cells, EPO-GmbH Berlin; Caco-2, human colorectal carcinoma cells, ATCC HTB-37; B16F10, mouse melanoma cells, ATCC CRL-6475) were plated at a density of 5,000 cells/well (DU145, HeLa-MaTu-ADR), 3,000 cells/well (NCI-H460, HeLa), 2,500 cells/well (A2780), 1,500 cells/well (Caco-2), or 1,000 cells/well (B16F10) in a 96-well multititer plate in 200 μL of their respective growth medium supplemented 10% fetal calf serum. After 24 hours, the cells of one plate (zero-point plate) were stained with crystal violet (see below), while the medium of the other plates was replaced by fresh culture medium (200 μl), to which the test substances were added in various concentrations (0 μM, as well as in the range of 0.001-10 μM). The cells were incubated for 4 days in the presence of test substances. Cell proliferation was determined by staining the cells with crystal violet: the cells were fixed by adding 20 μl/measuring point of an 11% glutaric aldehyde solution for 15 minutes at room temperature. After three washing cycles of the fixed cells with water, the plates were dried at room temperature. The cells were stained by adding 100 μl/measuring point of a 0.1% crystal violet solution (pH 3.0). After three washing cycles of the stained cells with water, the plates were dried at room temperature. The dye was dissolved by adding 100 μl/measuring point of a 10% acetic acid solution. The extinction was determined by photometry at a wavelength of 595 nm. The change of cell number, in percent, was calculated by normalization of the measured values to the extinction values of the zero-point plate (=0%) and the extinction of the untreated (0 μm) cells (=100%). The IC50 values (inhibitory concentration at 50% of maximal effect) were determined by means of a 4 parameter fit. Non-adherent MOLM-13 human acute myeloid leukemia cells (DSMZ ACC 554) were seeded at a density of 5,000 cells/well in a 96-well multititer plate in 100 μL of growth medium supplemented 10% fetal calf serum. After 24 hours, cell viability of one plate (zero-point plate) was determined with the Cell Titre-Glo Luminescent Cell Viability Assay (Promega), while 50 μL of test compound containing medium was added to the wells of the other plates (final concentrations in the range of 0.001-1 μM and DMSO controls). Cell viability was assessed after 72-hour exposure with the Cell Titre-Glo Luminescent Cell Viability Assay (Promega). IC50 values (inhibitory concentration at 50% of maximal effect) were determined by means of a 4 parameter fit on measurement data which were normalized to vehicle (DMSO) treated cells (=100%) and measurement readings taken immediately before compound exposure (=0%).

Molecules are shown by their SMILES.

T1 sequence (P50750 whole entry): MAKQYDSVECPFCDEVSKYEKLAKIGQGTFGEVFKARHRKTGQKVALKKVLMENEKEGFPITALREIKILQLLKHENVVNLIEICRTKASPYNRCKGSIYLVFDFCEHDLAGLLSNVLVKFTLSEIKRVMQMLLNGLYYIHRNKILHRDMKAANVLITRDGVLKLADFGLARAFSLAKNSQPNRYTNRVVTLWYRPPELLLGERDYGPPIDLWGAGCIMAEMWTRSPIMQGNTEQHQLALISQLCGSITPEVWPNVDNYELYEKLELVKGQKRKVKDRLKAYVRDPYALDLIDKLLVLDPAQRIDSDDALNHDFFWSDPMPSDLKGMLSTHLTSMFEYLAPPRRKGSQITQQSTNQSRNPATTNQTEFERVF
T1 sequence (O60563 whole entry partner): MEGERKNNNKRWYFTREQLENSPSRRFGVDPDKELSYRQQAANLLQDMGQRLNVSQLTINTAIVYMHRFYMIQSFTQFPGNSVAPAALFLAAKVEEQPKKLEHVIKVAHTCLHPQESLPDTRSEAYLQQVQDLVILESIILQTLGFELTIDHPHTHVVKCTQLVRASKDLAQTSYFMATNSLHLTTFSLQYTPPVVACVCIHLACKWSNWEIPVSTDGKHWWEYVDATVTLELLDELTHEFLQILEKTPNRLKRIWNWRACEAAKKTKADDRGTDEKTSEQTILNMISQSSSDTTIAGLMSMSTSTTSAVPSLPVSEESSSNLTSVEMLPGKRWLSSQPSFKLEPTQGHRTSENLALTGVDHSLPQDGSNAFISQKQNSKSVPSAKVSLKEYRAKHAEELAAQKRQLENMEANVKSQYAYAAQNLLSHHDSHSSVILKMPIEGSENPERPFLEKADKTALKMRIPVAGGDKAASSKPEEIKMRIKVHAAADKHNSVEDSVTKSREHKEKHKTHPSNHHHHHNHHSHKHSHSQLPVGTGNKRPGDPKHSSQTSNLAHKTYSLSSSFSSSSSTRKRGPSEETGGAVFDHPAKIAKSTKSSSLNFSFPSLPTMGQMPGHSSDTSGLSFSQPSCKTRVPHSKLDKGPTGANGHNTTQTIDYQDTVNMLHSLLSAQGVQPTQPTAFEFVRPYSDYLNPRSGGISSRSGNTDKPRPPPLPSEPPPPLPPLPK

As to `CS(=N)(=O)Cc1cc2cc(c1)OCCCCOc1cc(F)ccc1-c1nc(ncc1F)N2` (racemic) [Example 1, (rac)-16,20-Difluoro-9-[(S-methylsulfonimidoyl)methyl]-2,3,4,5-tetrahydro-12H-13,17-(azeno)-11,7-(metheno)-1,6,12,14-benzodioxadiazacyclononadecine], at CDK9/CycT1, the IC50 amounted to 2.9 nM and the “Selectivity CDK9 over CDK2: IC50 (CDK2)/IC50 (CDK9)” value (“Selectivity CDK9 over CDK2: IC50” below) is 7.4. Besides, in the assay with HeLa cells, the IC50 came to 8 nM.

Take `C[S+]([O-])Cc1cc2nc(c1)OCCCOc1cc(F)ccc1-c1cc(ncc1F)N2` (racemic) [Example 4, (rac)-15,19-Difluoro-8-[(methylsulfinyl)methyl]-3,4-dihydro-2H,11H-10,6-(azeno)-12,16-(metheno)-1,5,11,13-benzodioxadiazacyclooctadecine]: at CDK9/CycT1, the IC50 is 2.8 nM and the “Selectivity CDK9 over CDK2: IC50” value was determined as 1.7. In addition, the IC50 in the assay on HeLa cells amounted to 4 nM.

Regarding `CS(=N)(=O)Cc1cc2nc(c1)OCCCOc1cc(F)ccc1-c1cc(ncc1F)N2` (racemic) [Example 5, (rac)-15,19-Difluoro-8-[(S-methylsulfonimidoyl)methyl]-3,4-dihydro-2H,11H-10,6-(azeno)-12,16-(metheno)-1,5,11,13-benzodioxadiazacyclooctadecine], on CDK9/CycT1, the IC50 worked out at 3 nM and the “Selectivity CDK9 over CDK2: IC50” value was found to be 0.65. Besides, the IC50 in the assay with HeLa cells was 2 nM.

Consider `C[S+]([O-])Cc1cc2nc(c1)OCCOc1cc(F)ccc1-c1cc(ncc1F)N2` (racemic) [Example 10, (rac)-14,18-difluoro-7-[(methylsulfinyl)methyl]-2,3-dihydro-10H-9,5-(azeno)-11,15-(metheno)-1,4,10,12-benzodioxadiazacycloheptadecine], for which, at CDK9/CycT1, the IC50 is 7.3 nM and the “Selectivity CDK9 over CDK2: IC50” value came to 56.5. Moreover, the IC50 with HeLa cells came out at 195 nM.

On to `CS(=N)(=O)Cc1cc2nc(c1)OCCOc1cc(F)ccc1-c1cc(ncc1F)N2` (racemic) [Example 11, (rac)-14,18-difluoro-7-[(S-methylsulfonimidoyl)methyl]-2,3-dihydro-10H-9,5-(azeno)-11,15-(metheno)-1,4,10,12-benzodioxadiazacycloheptadecine], for which the results for the IC50 against CDK9/CycT1 and with HeLa cells were 2.5 nM and 94 nM, respectively. For the same compound, at CDK9/CycT1, the “Selectivity CDK9 over CDK2: IC50” value is 72.6.

In the case of `C[S+]([O-])Cc1cc2nc(c1)OCCCCOc1cc(F)ccc1-c1cc(ncc1F)N2` (racemic) [Example 13, (rac)-16,20-difluoro-9-[(methylsulfinyl)methyl]-2,3,4,5-tetrahydro-12H-11,7-(azeno)-13,17-(metheno)-1,6,12,14-benzodioxadiazacyclononadecine], on CDK9/CycT1, the IC50 is 4 nM and the “Selectivity CDK9 over CDK2: IC50” value came to 4.2.

For the compound `CS(=N)(=O)Cc1cc2nc(c1)OCCCCOc1cc(F)ccc1-c1cc(ncc1F)N2` (racemic) [Example 14, (rac)-16,20-difluoro-9-[(S-methylsulfonimidoyl)methyl]-2,3,4,5-tetrahydro-12H-11,7-(azeno)-13,17-(metheno)-1,6,12,14-benzodioxadiazacyclononadecine], the IC50 against CDK9/CycT1 amounted to 4.8 nM; in the assay on HeLa cells, 11 nM. Moreover, on CDK9/CycT1, the “Selectivity CDK9 over CDK2: IC50” value is recorded as 4.1.

Turning to `CS(=N)(=O)Cc1cc2cc(c1)OCCCOc1cc(F)ccc1-c1nc(ncc1F)N2` (racemic) [Example 15, (rac)-15,19-difluoro-8-[(S-methylsulfonimidoyl)methyl]-3,4-dihydro-2H,11H-12,16-(azeno)-10,6-(metheno)-1,5,11,13-benzodioxadiazacyclooctadecine], at CDK9/CycT1, the IC50 worked out at 3.8 nM and the “Selectivity CDK9 over CDK2: IC50” value is on record as 6.8. In the assay with HeLa cells, the IC50 turned out to be 9 nM.

With `CS(=O)(Cc1cc2cc(c1)OCCCOc1cc(F)ccc1-c1nc(ncc1F)N2)=NC(=O)C(F)(F)F` (racemic) [Example 16, (rac)-N-[{[15,19-difluoro-3,4-dihydro-2H,11H-12,16-(azeno)-10,6-(metheno)-1,5,11,13-benzodioxadiazacyclooctadecin-8-yl]methyl}(methyl)oxido-λ^6-sulfanylidene]-2,2,2-trifluoroacetamide], on CDK9/CycT1, the IC50 stood at 3.9 nM and the “Selectivity CDK9 over CDK2: IC50” value turned out to be 14.8. In addition, in the assay with HeLa cells, the IC50 was 10 nM.

Regarding `CCNC(=O)N=S(C)(=O)Cc1cc2nc(c1)OCCCOc1cc(F)ccc1-c1cc(ncc1F)N2` (racemic) [Example 17, (rac)-1-[{[15,19-difluoro-3,4-dihydro-2H,11H-10,6-(azeno)-12,16-(metheno)-1,5,11,13-benzodioxadiazacyclooctadecin-8-yl]methyl}(methyl)oxido-λ^6-sulfanylidene]-3-ethylurea], the results for the IC50 against CDK9/CycT1 and in the assay with HeLa cells were 4.4 nM and 11 nM, respectively. In addition, at CDK9/CycT1, the “Selectivity CDK9 over CDK2: IC50” value was found to be 1.3.

With `CC(=O)N=S(C)(=O)Cc1cc2nc(c1)OCCCOc1cc(F)ccc1-c1cc(ncc1F)N2` (racemic) [Example 18, (rac)-N-[{[15,19-difluoro-3,4-dihydro-2H,11H-10,6-(azeno)-12,16-(metheno)-1,5,11,13-benzodioxadiazacyclooctadecin-8-yl]methyl}(methyl)oxido-λ^6-sulfanylidene]acetamide], the figures for the IC50 at CDK9/CycT1 and with HeLa cells were 4.9 nM and 10 nM, respectively. The “Selectivity CDK9 over CDK2: IC50” value at CDK9/CycT1 is given as 1.7.

For `CN=S(C)(=O)Cc1cc2nc(c1)OCCCOc1cc(F)ccc1-c1cc(ncc1F)N2` (racemic) [Example 19, (rac)-8-[(N,S-dimethylsulfonimidoyl)methyl]-15,19-difluoro-3,4-dihydro-2H,11H-10,6-(azeno)-12,16-(metheno)-1,5,11,13-benzodioxadiazacyclooctadecine], at CDK9/CycT1, the IC50 was found to be 5.3 nM and the “Selectivity CDK9 over CDK2: IC50” value amounted to 2.9. Also, in the assay on HeLa cells, the IC50 was 31 nM.

Consider `CSCc1cc2nc(c1)OCCOc1cc(F)ccc1-c1cc(ncc1F)N2` [Example 9, 14,18-Difluoro-7-[(methylsulfanyl)methyl]-2,3-dihydro-10H-9,5-(azeno)-11,15-(metheno)-1,4,10,12-benzodioxadiazacycloheptadecine], for which, on CDK9/CycT1, the IC50 turned out to be 18 nM and the “Selectivity CDK9 over CDK2: IC50” value is on record as 963.7.

The record behind these values is patent US9963464B2, “Macrocyclic compounds” (Bayer Pharma Aktiengesellschaft, priority 2014, dated 2018).
